We go through six molecules from article PMC11123929, “A Comparative Study and Prediction of the Ex Vivo Permeation of Six Vaginally Administered Drugs across Five Artificial Membranes and Vaginal Tissue” (Molecules, 2024).

For data set [1] the following is noted: cited from earlier work; for PSA: ref Pubchem [1].
The nature of data set [2]: Franz diffusion cell in vitro permeability, PVDF membrane. The conditions noted are these: for Cumulative Amount Permeated, PVDF (Hydrophobic): after 8 h, mean ± SD (n = 3); for Papp at 8 h: pH 7.4; for permeation order of the substance, PVDF (Hydrophobic): rank among the six drugs by cumulative amount after 8 h. The text has this:
(§1) There are many membranes available on the market that are grouped as cellulosic and polymeric. Taking into account those that are more convenient and economical, two synthetic membranes and their combinations were used. Synthetic PVDF (polyvinylidene difluoride) and cellulose acetate (Table S2) membranes were pre-treated according to the supplier’s instructions. Cellulose membranes were further treated to acquire their lipophilic properties. Thus, they were placed on a flat glass surface and completely coated with IPM (isopropyl myristate) solution. The cellulose membrane was allowed to incubate in the IPM solution for 30 min. After impregnation, the excess IPM solution was drained off, and the membrane was used for the in vitro experiments. To ensure that the procedure was carried out successfully, the cellulose membrane was weighed before and after pretreatment.
(§2) The in vitro permeability profile of each compound was evaluated using the Franz diffusion cell setup (PermeGear, Hellertown, PA, USA). Five distinct artificial membranes were placed between the donor (upper) and receiver (lower) chambers of cells, with an effective diffusion area of 4.9 cm^2 and a receptor volume of 20 mL; 1 mL of APIs solutions were placed in the donor compartment, which was sealed with Parafilm® to prevent any loss of moisture. The acceptor contained degassed PBS at pH 7.4. The procedure was performed under agitation at 90 rpm and at a temperature of 37 °C ± 0.2 °C.
(§3) At specified intervals (t = 2, 3, 4, 6, and 8 h), 0.5 mL of the samples was taken from the receptor compartment and replaced with an equal volume of freshly prewarmed receptor medium. The concentration of each API was quantified using the appropriate HPLC method (Section 4.1) without sample pretreatment. Blanks containing PBS were pretreated with the same procedure. Each sample was analyzed in triplicate, and its cumulative release over time was plotted (Figure 2). The steady-state flux (Jss) was determined by plotting the permeation of the API per unit area (μg/cm^2) against time (h) and calculating the slope of the linear portion of the resulting line. Equation (1) was applied to calculate the apparent permeability coefficient (cm/h) (Paap).

Data set [3] is described as follows: Ex vivo permeability in Franz diffusion cell, cow vaginal tissue. As for the experimental part: Ex vivo experiments were conducted on cow vaginal mucosa sourced from a local slaughterhouse. Tissues with an exposure area of 0.19 cm^2 were placed in a Franz diffusion cell with the epithelial mucosa side facing the donor compartment. In the donor compartment, 200 μL of API’s solution in VFS (pH 4.5) was added (37 °C ± 0.2 °C), while the acceptor was filled with 5 mL of PBS at pH 7.4 (constant stirring at 100 rpm).
Samples were centrifuged at 2000× g for 10 min, and supernatants were analyzed using HPLC as described in Section 4.1.
The procedure for extracting the drug from the tissue was as follows: after the experiment was completed, each tissue was carefully removed from the Franz cell and immersed in 5 mL of methanol. It was then sonicated for 30 min, followed by 10 min of vertexing, another 30 min in the sonicator, and 10 min of vertexing. Finally, the samples were centrifuged for 20 min at 5000× g, and the supernatant was collected for analysis.

A short description of data set [4]: Franz diffusion cell in vitro permeability, IPM-impregnated cellulose membrane. The following applies: for Cumulative Amount Permeated, Impregnated IPM: after 8 h, mean ± SD (n = 3); for Papp at 8 h: pH 7.4; for permeation order of the substance, Impregnated IPM: rank among the six drugs by cumulative amount after 8 h.
Text: as §1, §2, §3

A short description of data set [5]: Franz diffusion cell in vitro permeability, hybrid IPM-cellulose membrane.
Text: as §1, §2, §3

Data set [6] is described as follows: Retention on reversed-phase C4 HPLC column as indication of tissue penetration. In kind it is physicochemical. The conditions noted are these: ACE C4 150 × 4.6 mm, MeOH-H2O 10:90, 0.5 mL/min, 40 °C. As for the experimental part:
Under the given conditions, it was assumed that the stationary phase simulates the tissue while the aqueous mobile phase represents the surrounding space. […] The analysis was carried out under isocratic conditions with a flow rate of 0.5 mL/min and a mobile phase consisting of MeOH-H2O at 10:90 (v/v).

Data set [7] can be described thus: Franz diffusion cell in vitro permeability, cellulose membrane. The conditions noted are these: for Cumulative Amount Permeated, Cellulose (Hydrophilic): after 8 h, mean ± SD (n = 3); for Papp (experimental, in vitro): cellulose membrane, Table 6, compared with PLS prediction; for Papp at 8 h: pH 7.4; for permeation order of the substance, Cellulose (Hydrophilic): rank among the six drugs by cumulative amount after 8 h.
Text: as §1, §2, §3

Data set [8] in a line: Franz diffusion cell in vitro permeability, hybrid PVDF-cellulose membrane.
Text: as §1, §2
as §3, with “Blanks containing PBS were pretreated with the same procedure.” left out, “Equation (1) was applied to calculate the apparent permeability coefficient (cm/h) (Paap).” left out

For data set [9] the following is noted: cited from earlier work.
The mark [10] stands for this setting: rank among the six drugs by cumulative amount after 8 h.

For the molecule `Clc1ccc(COC(Cn2ccnc2)c2ccc(Cl)cc2Cl)cc1` (stereo not shown) [ECO, econazole], the “Tangible aqueous solubility (descriptive term)” value in data set [1] (ref European Pharmacopeia) is reported as “very slightly soluble”. Further, the PSA in data set [1] is given as 27 Å2. In data set [2], the “Cumulative Amount Permeated, PVDF (Hydrophobic)” value was 15.3 μg/cm^2; the apparent permeability coefficient (Papp) (usually a coefficient for how fast a substance crosses the barrier) at 8 h is 0.0417 ×10⁻⁶ cm/s; the “permeation order of the substance, PVDF (Hydrophobic)” value (“permeation order … (Hydrophobic)” for short) turned out to be 6th. In addition, in data set [3], the “tissue permeability / diffusion profile in vaginal tissue, ex vivo” value (“tissue permeability / diffusion profile” for short) is “zero”. Also, in [3] (cow, 8 h), the “Acceptor's Mass” value is recorded as 0 mg, the “Final Mass Donor” value is on record as 0.2 (±0.01) mg and the “Tissue Extraction” value is given as 0.01 (±0.001) mg. For the same molecule, in data set [4], the “Cumulative Amount Permeated, Impregnated IPM” value is listed as 0.92 μg/cm^2; the apparent permeability (Papp) at 8 h is 0.0389 ×10⁻⁶ cm/s; the “permeation order of the substance, Impregnated IPM” value is recorded as 4th. Besides, the “diffusion profile in cellulose-IPM membrane” value in data set [5] is reported as “zero”. The “Retention time (tr) in column C4” value in data set [6] is 9.94 min. Further, in data set [7], the “Papp value / permeability / diffusion profile in cellulose membrane” value is recorded as “negligible”; the “Cumulative Amount Permeated, Cellulose (Hydrophilic)” value stood at 1.7 μg/cm^2; the Papp (experimental, in vitro) is 0.239 ×10⁻⁶ cm/s; the Papp at 8 h was 0.239 ×10⁻⁶ cm/s. Also, in data set [7], the “permeation order of the substance, Cellulose (Hydrophilic)” value (from here on “permeation order … (Hydrophilic)”) is on record as 5th.

In the case of `CCN(CC)CC(=O)Nc1c(C)cccc1C` [LIDO, lidocaine], in data set [3] (cow, 8 h), the “Acceptor's Mass” value is 0.53 (±0.09) mg, the “Final Mass Donor” value is 0.9 (±0.1) mg and the “Tissue Extraction” value is listed as 0.5 (±0.09) mg.

Turning to `Cc1ncc([N+](=O)[O-])n1CCO` [METRO, metronidazole], the “Cumulative Amount Permeated, PVDF-Cellulose” value in [8] (after 8 h, mean ± SD (n = 3)) is on record as 370.2 μg/cm^2. Besides, the Papp at 8 h in data set [8] (pH 7.4) was 1.11 ×10⁻⁶ cm/s. Also, the “permeation order of the substance, PVDF-Cellulose” value in data set [8] (setting [10]) is 3rd. In [1] (ref European Pharmacopeia), the “Tangible aqueous solubility (descriptive term)” value is “very soluble” and the “Tangible aqueous solubility (value in brackets)” value was 5920 µg/mL. Also, the PSA in data set [1] was 83.87 Å2. In data set [2], the “Cumulative Amount Permeated, PVDF (Hydrophobic)” value is 2008.4 μg/cm^2; the Papp at 8 h is 2.5 ×10⁻⁶ cm/s; the “permeation order … (Hydrophobic)” value was found to be 1st. Also, in data set [3] (cow), the apparent permeability (Papp) at 8 h, 10 mg/mL is 12.8 ×10⁻⁶ cm/s. Moreover, in data set [3] (cow, 8 h), the “Acceptor's Mass” value was 0.65 (±0.08) mg, the “Final Mass Donor” value is on record as 0.01 (±0.001) mg and the “Tissue Extraction” value is on record as 1.4 (±0.2) mg. In addition, in data set [3] (cow, 8 h, 10 mg/mL), the “Cumulative Amount Permeated, Tissue” value is 3419.5 μg/cm^2 and the “permeation order of the substance, Tissue” value stood at 1st. Also, in data set [4], the “Cumulative Amount Permeated, Impregnated IPM” value is listed as 2373.1 μg/cm^2; the Papp at 8 h is 3.89 ×10⁻⁶ cm/s; the “permeation order of the substance, Impregnated IPM” value is reported as 1st. Further, the “Cumulative Amount Permeated, IPM-Cellulose” value in [5] (after 8 h, mean ± SD (n = 3)) amounted to 307.3 μg/cm^2. The Papp at 8 h in data set [5] (pH 7.4) was 0.556 ×10⁻⁶ cm/s. Besides, the “permeation order of the substance, IPM-Cellulose” value in data set [5] (setting [10]) was found to be 3rd. In addition, the “Retention time (tr) in column C4” value in data set [6] was found to be 3.93 min. Further, in data set [7], the “Cumulative Amount Permeated, Cellulose (Hydrophilic)” value is on record as 3976.4 μg/cm^2; the Papp (experimental, in vitro) was 6.39 ×10⁻⁶ cm/s; the Papp at 8 h is 6.39 ×10⁻⁶ cm/s; the “permeation order … (Hydrophilic)” value turned out to be 1st.

Take `Clc1ccc(COC(Cn2ccnc2)c2ccc(Cl)cc2Cl)c(Cl)c1` (stereo not shown) [MICO, miconazole]: in data set [1] (ref European Pharmacopeia), the “Tangible aqueous solubility (descriptive term)” value was “very slightly soluble”. Further, the PSA in data set [1] is on record as 27 Å2. Moreover, in data set [2], the “Cumulative Amount Permeated, PVDF (Hydrophobic)” value is recorded as 33.4 μg/cm^2; the apparent permeability (Papp) at 8 h was 0.806 ×10⁻⁶ cm/s; the “permeation order … (Hydrophobic)” value is 5th. Moreover, the “tissue permeability / diffusion profile” value in data set [3] was “zero”. Also, in data set [3] (cow, 8 h), the “Acceptor's Mass” value was 0 mg, the “Final Mass Donor” value is on record as 0.26 (±0.02) mg and the “Tissue Extraction” value was found to be 0 mg. In addition, the “diffusion profile in cellulose-IPM membrane” value in data set [5] is reported as “zero”. Besides, the “Retention time (tr) in column C4” value in data set [6] is 10.2 min. In data set [7], the “Papp value / permeability / diffusion profile in cellulose membrane” value was “negligible and zero”; the Papp (experimental, in vitro) is 0 ×10⁻⁶ cm/s.

For `CCCCCCCCCc1ccc(OCCOCCOCCOCCOCCOCCOCCOCCOCCO)cc1` [NONO, nonoxynol-9], the “Tangible aqueous solubility (descriptive term)” value in data set [1] (ref European Pharmacopeia) is “miscible with H2O”. The PSA in data set [1] is recorded as 103.3 Å2. Moreover, in [2], the “Cumulative Amount Permeated, PVDF (Hydrophobic)” value is given as 1752.2 μg/cm^2 and the “permeation order … (Hydrophobic)” value is 2nd. Further, in [3], the “tissue permeability / diffusion profile” value was “does not penetrate the vaginal tissue at all and zero”. The “Tissue Extraction” value in data set [3] (drug extracted from tissue with methanol after the experiment) is listed as 0.15 (±0.05) mg. The “Acceptor's Mass” value in [3] (ex vivo, end of experiment) is listed as 0 mg. Also, the “Final Mass Donor” value in [3] (ex vivo, end of experiment, mean ± SD (n = 3)) is 1.85 (±0.2) mg. Also, the “diffusion profile in cellulose-IPM membrane” value in data set [5] is given as “zero”. In [6], the “Retention time (tr) in column C4” value turned out to be 39.48 min. Moreover, in [7], the “Papp value / permeability / diffusion profile in cellulose membrane” value is listed as “negligible”; the “Cumulative Amount Permeated, Cellulose (Hydrophilic)” value was determined as 20.1 μg/cm^2; the Papp (experimental, in vitro) is 0.0556 ×10⁻⁶ cm/s; the “permeation order … (Hydrophilic)” value was 4th.

Consider `O=[N+]([O-])OCC(CO[N+](=O)[O-])O[N+](=O)[O-]` [nitroglycerin], for which the log partition coefficient (log P) – broadly, a log measure of how a compound divides between an organic and an aqueous phase – in data set [9] is listed as 1.6.
